These are literature values, as cited in patent US9532983B2, “Benzofuran compounds, compositions, kits and/or methods thereof” (Savannah State University, priority 2013, dated 2017).

The data set concerns the target σ1 receptor (Homo sapiens, UniProt Q99720). To be noted: read-out: affinity for the σ1 receptor; Maurice et al.; cited from earlier work.

Sequence of σ1 receptor (Q99720 whole entry, species assumed): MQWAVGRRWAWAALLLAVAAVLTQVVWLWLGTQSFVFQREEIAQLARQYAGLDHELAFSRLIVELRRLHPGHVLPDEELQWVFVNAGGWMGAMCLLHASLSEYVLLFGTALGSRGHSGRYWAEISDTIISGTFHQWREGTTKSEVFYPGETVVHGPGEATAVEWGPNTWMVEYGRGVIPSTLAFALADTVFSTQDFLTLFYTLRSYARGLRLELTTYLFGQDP

`Cc1ccc2c(c1)[C@]13CCCC[C@@H]1[C@H](C2)N(C)CC3` [dimemorfan]: the Ki is 151 nM.
